Measurements reported in ChEMBL document CHEMBL5226284, “Small Molecule Inhibitors Targeting Biosynthesis of Ceramide, the Central Hub of the Sphingolipid Network” (J Med Chem, 2021).
One block for each molecule: values may come before it.

Tests used:
[1] = Inhibition of CerS human HCT-116 cells microsomal fraction assessed as reduction in C24 dihydroceramide synthesis by LC-MS/MS analysis; assay type: microsomes, Microsome
[2] = Inhibition of CerS human HCT-116 cells microsomal fraction assessed as reduction in C16 dihydroceramide synthesis by LC-MS/MS analysis; assay type: microsomes, Microsome
[3] = Inhibition of CerS human HCT-116 cells microsomal fraction assessed as reduction in C18 dihydroceramide synthesis by LC-MS/MS analysis; assay type: microsomes, Microsome
[4] = target: T1, Sphingomyelin phosphodiesterase 2 (Rattus norvegicus) (UniProt Q9ET64); assay: Inhibition of rat brain microsomes nSMase at 350 uM measured after 15 mins relative to control; conditions: Microsome
T1 sequence (whole entry): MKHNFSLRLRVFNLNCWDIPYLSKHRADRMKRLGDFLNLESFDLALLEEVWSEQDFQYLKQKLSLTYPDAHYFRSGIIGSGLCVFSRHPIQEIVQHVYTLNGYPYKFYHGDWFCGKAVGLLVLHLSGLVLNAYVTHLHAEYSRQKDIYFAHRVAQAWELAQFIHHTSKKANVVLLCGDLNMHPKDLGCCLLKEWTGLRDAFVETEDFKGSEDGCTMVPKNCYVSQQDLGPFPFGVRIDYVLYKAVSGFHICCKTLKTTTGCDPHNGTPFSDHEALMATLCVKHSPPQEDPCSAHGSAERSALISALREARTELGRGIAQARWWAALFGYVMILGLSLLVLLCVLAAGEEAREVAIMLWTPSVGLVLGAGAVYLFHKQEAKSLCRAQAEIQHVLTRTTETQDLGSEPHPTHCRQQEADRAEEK

[5] = Inhibition of bovine brain microsomes nSMase assessed as inhibition constant; parameters: species or system Bos taurus, Microsome
[6] = target: T2, Sphingomyelin phosphodiesterase 2 (Rattus norvegicus, UniProt Q9ET64); assay: Inhibition of rat brain microsomes nSMase; parameters: species or system Microsome
T2 sequence (Q9ET64 whole entry): T1 sequence (whole entry)

[7] = target: T3, Sphingomyelin phosphodiesterase 2 (Mus musculus, UniProt O70572); assay: Inhibition of mouse nSMase
T3 sequence (O70572 whole entry): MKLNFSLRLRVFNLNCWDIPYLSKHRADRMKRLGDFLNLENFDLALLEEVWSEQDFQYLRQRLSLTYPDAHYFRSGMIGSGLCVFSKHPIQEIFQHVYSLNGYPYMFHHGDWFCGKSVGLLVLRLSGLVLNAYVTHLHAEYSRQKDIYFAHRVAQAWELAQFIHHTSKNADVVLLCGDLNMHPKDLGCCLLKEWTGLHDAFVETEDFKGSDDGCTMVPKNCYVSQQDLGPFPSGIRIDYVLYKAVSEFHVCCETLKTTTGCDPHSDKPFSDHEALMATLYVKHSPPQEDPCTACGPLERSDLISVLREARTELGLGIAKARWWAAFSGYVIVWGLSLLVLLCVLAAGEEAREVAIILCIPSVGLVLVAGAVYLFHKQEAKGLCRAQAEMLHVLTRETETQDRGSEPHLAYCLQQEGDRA

[8] = Inhibition of rat brain aSMase using HMU-PC as substrate incubated for 3 hrs by fluorescence based analysis; assay type: tissue-based
[9] = system: Neutral sphingomyelinase (Sus scrofa); assay: Inhibition of pig liver plasma membranes nSMase at 100 uM measured after 15 mins at 100 uM relative to control; conditions: Plasma membrane
[10] = target: T4, Sphingolipid delta(4)-desaturase DES1 (Rattus norvegicus, UniProt Q5XIF5); assay: Inhibition of rat liver microsome DES1 incubated for 20 min in presence of NADH by liquid scintillation counter method; assay type: microsomes
T4 sequence (Q5XIF5 whole entry): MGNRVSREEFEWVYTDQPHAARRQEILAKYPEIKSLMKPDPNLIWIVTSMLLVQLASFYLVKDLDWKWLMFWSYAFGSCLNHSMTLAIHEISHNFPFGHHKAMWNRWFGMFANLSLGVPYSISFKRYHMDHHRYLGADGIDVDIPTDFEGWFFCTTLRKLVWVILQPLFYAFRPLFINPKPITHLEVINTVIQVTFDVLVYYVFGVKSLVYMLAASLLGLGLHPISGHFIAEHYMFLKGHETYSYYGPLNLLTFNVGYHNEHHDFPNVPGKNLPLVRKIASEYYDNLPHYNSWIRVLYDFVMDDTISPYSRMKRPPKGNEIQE

[11] = Inhibition of rat brain aSMase using HMU-PC as substrate incubated for 3 hrs by fluorescence plate reader assay; assay type: tissue-based
[12] = Inhibition of bovine brain microsomes nSMase; parameters: species or system Bos taurus, Microsome
[13] = species on record: Bos taurus; assay: Inhibition of bovine brain microsomes nSMase measured after 60 mins relative to control; conditions: Microsome
[14] = Inhibition of CerS human HCT-116 cells microsomal fraction assessed as reduction in C24:1 dihydroceramide synthesis by LC-MS/MS analysis; assay type: microsomes, Microsome
[15] = target: T1, Sphingomyelin phosphodiesterase 2 (Rattus norvegicus); assay: Inhibition of rat brain microsomes nSMase at 200 uM measured after 90 mins relative to control; conditions: Microsome
[16] = Inhibition of rat brain aSMase; assay type: tissue-based

Compound: CCCCCCCCCCCCCCCCC(=O)NC(CO)(CO)CCc1ccc(OCCCCCCC)cc1
IC50 [1]: 63.6 µM

Compound: CCCCCCCCc1ccc(CCC(CO)(CO)NCC)cc1
IC50 [2]: 25.7 µM
IC50 [3]: 50.7 µM
IC50 [1]: 60.6 µM

Compound: C/C=C/C=C/C(=O)N[C@@H](CO)[C@H]1CC(CCCCCC)C(=O)O1 (some centres not stated)
inhibition [4]: 90%

Compound: CCCCCCCCCCCCNC(=S)N[C@H](CO)[C@H](O)c1ccc([N+](=O)[O-])cc1
Ki [5]: 1.7 µM

Compound: COS(=O)(=O)O[C@@H]1[C@H](O)[C@H](OP(=O)(O)O)[C@@H](O)[C@H](OP(=O)(O)O)[C@H]1O
IC50 [8]: > 100 µM

Compound: COc1c(O)c(C)c(C/C=C(\C)CC/C=C(\C)CC/C=C(\C)CC/C=C(\C)CC/C=C(\C)CC/C=C(\C)CC/C=C(\C)CC/C=C(\C)CC/C=C(\C)CCC=C(C)C)c(O)c1OC
inhibition [9]: > 90%

Compound: CC1=C(/C=C/C(C)=C/C=C/C(C)=C/C(=O)Nc2ccc(O)cc2)C(C)(C)CCC1=O
IC50 [10]: 1.68 µM

Compound: CCCCCCCCCC(N)(P(=O)(O)O)P(=O)(O)O
IC50 [11]: 0.02 µM

Compound: CCCCCCCCCCCCCCCC(=O)N[C@@H](CC(F)(F)P(=O)(O)O)[C@H](O)c1ccccc1
IC50 [12]: 181 µM

Compound: CCCCCCCCCCCCCCNC(=S)N[C@H](CO)[C@H](O)c1ccc([N+](=O)[O-])cc1
inhibition [13]: 90%
Ki [5]: 2.5 µM

Compound: CCCCCCCOc1ccc(CCC(CO)(CO)N(C)C)cc1
IC50 [3]: 21.4 µM
IC50 [14]: 28.7 µM

Compound: CCCCCCCCCC(=O)N[C@H](C)C(=O)NC1=CC2(CO2)C(=O)C=C1 (some centres not stated)
inhibition [15]: 33%

Compound: CCCCCCCCOS(=O)(=O)O[C@@H]1[C@H](O)[C@H](OP(=O)(O)O)[C@@H](O)[C@H](OP(=O)(O)O)[C@H]1O
IC50 [8]: 4 µM

Compound: CCOc1ccc(OCC)c(NC(=O)C2=C(C)NC(=S)NC2c2ccc(N(CC)CC)cc2)c1 (configuration not stated)
IC50 [7]: 0.86 µM

Compound: Cc1csc(-c2c(C(F)(F)F)oc3cc(O)c(C)cc3c2=O)n1
IC50 [16]: 9.5 µM

Results, then the molecule that gave them:

IC50 [6]: 4.2 µM
Compound: CC(C)(O)/C=C/C1=CC(=O)C=CC1=O

IC50 [7]: 2.4 µM
Compound: S=c1[nH]nc(Nc2ccc(Cl)cc2)n1-c1ccc(Cl)cc1

IC50 [6]: 8.2 µM
Compound: CCCCCCCCC/C=N/NC(=N)N

IC50 [7]: 0.9 µM
Compound: CCN(CC)c1ccc(C2NC(=S)NC(C)=C2C(=O)Nc2ccccc2OC)cc1 (configuration not stated)

IC50 [6]: 5 µM
Compound: N=C(N)N/N=C/c1cc2ccccc2[nH]1

inhibition [15]: 23%
Compound: CCCCCCCCCC(=O)N[C@H](Cc1ccccc1)C(=O)NC1=CC2(CO2)C(=O)C=C1 (some centres not stated)

IC50 [6]: 17 µM
Compound: CC(C)(O)/C=C/c1cc(O)ccc1O

IC50 [7]: 2.5 µM
Compound: S=c1[nH]nc(-c2cccs2)n1CC1CCCCC1
